Assay results taken from US5871937A, “Acute phase protein modulating endotoxic activity of lipopolysaccharides, assay methods and polypeptides” (priority 1997, dated 1999).
Where two headings read alike, the source gives them in different places.

B1: rabbit CRP: rabbit C-reactive protein (protein, UniProt P02742 21-225, looked up)
C-reactive protein: AGMHKKAFVFPKESDNSYVSLNAQLKKPLKAFTVCLYFYTDLSMTRGYSIFSYATRRQFNEILLFWSKDIGYSFSVGGDEIIFKVSDIPVDPTHLCASWESSTGIAELWVDGKPMVRKSLKKGYILGPEASIILGQDQDSFGGSFEKQQSLVGDIGNVNMWDYALSPEEINTIYAGGTFSPNVLDWRELTYQVRGEVHVKPQLWP
B2: BPI: bactericidal/permeability increasing protein, a product of neutrophils (protein, UniProt P17213 32-487, looked up)
Bactericidal …: VNPGVVVRISQKGLDYASQQGTAALQKELKRIKIPDYSDSFKIKHLGKGHYSFYSMDIREFQLPSSQISMVPNVGLKFSISNANIKISGKWKAQKRFLKMSGNFDLSIEGMSISADLKLGSNPTSGKPTITCSSCSSHINSVHVHISKSKVGWLIQLFHKKIESALRNKMNSQVCEKVTNSVSSELQPYFQTLPVMTKIDSVAGINYGLVAPPATTAETLDVQMKGEFYSENHHNPPPFAPPVMEFPAAHDRMVYLGLSDYFFNTAGLVYQEAGVLKMTLRDDMIPKESKFRLTTKFFGTFLPEVAKKFPNMKIQIHVSASTPPHLSVQPTGLTFYPAVDVQAFAVLPNSSLASLFLIGMHTTGSMEVSAESNRLVGELKLDRLLLELKHSNIGPFPVELLQDIMNYIVPILVLPRVNEKLQKGFPLPTPARVQLYNVVLQPHQNFLLFGADVVYK
B3: LBP: acute phase glycoprotein of about 60 kD that binds LPS and retards its binding to HDL (protein, UniProt P17454 27-482, looked up)
Lipopolysaccharide-binding …: TNPGLITRITDKGLEYAAREGLLALQRKLLEVTLPDSDGDFRIKHFGRAQYKFYSLKIPRFELLRGTLRPLPGQGLSLDISDAYIHVRGSWKVRKAFLRLKNSFDLYVKGLTISVHLVLGSESSGRPTVTTSSCSSDIQNVELDIEGDLEELLNLLQSQIDARLREVLESKICRQIEEAVTAHLQPYLQTLPVTTQIDSFAGIDYSLMEAPRATAGMLDVMFKGEIFPLDHRSPVDFLAPAMNLPEAHSRMVYFSISDYVFNTASLAYHKSGYWNFSITDAMVPADLNIRRTTKSFRPFVPLLANLYPNMNLELQGTVNSEQLVNLSTENLLEEPEMDIEALVVLPSSAREPVFRLGVATNVSATLTLNTRKITGFLKPGRLQVELKESKVGGFNVELLEALLNYYILNNLYPKVNEKLAHRFPLPLLRHIQLYDLLLQTHENFLLVGANIQYRRV

Assays:
[1] = molecular target: T1, purified lapine LBP (Oryctolagus cuniculus, UniProt P17454); experiment: Microtiter binding assay: inhibition of LBP binding to Re595 LPS-coated plates; design: species or system rabbit; conditions: for IC50: read-out: ED50 (the source's name) (converted); for Inhibition of LBP binding to LPS plate, in words: qualitative analysis of Table IV
T1 construct: the mature secreted protein present in impure form in acute phase sera; from tissue; host or cells: acute phase rabbit serum (silver nitrate induced), Bio-Rex 70 and Mono-Q columns
Text: (§1) The binding of purified lapine LBP to LPS immobilized on plastic microtiter plates has also been examined. The presence of LBP bound to LPS was detected with goat anti-rabbit LBP and peroxidase conjugated rabbit anti-goat IgG.
The data from these studies are shown in Table IV, below, where the numerical results are the concentrations necessary to reduce the binding of 1 microgram (ug)/ml LBP to the plate by 50 percent; i.e., ED50. It is noted that in some instances, the structure of the inhibitor is either not fully defined or the inhibitor is heterogeneous, thereby preventing a calculation of a molar concentration for ED50.
(§2) Microtiter plates were coated with LPS by incubating 100 ul/well of 30 ug/ml Re595 LPS in 0.1M Na2 Co3, 20 mM EDTA, pH 9.6 for 3 hours at 37°. The LPS solution was flicked out, the plates rinsed thoroughly under running water and air dried overnight. The binding properties of the dried, LPS-coated plates remain unchanged for up to eight weeks. Excess binding sites were then blocked with 200 ul/well of 10 mg/ml BSA in 50 mM HEPES, 0.15M NaCl, pH 7.4 (HS buffer) for 30 minutes at 37° temperature with agitation, after which the BSA solution was flicked out.
LBP samples, APRS, or NRS were added in a total volume of 100 ul/well diluted in 1 mg/ml BSA in HS buffer. Binding of LBP was allowed to occur for 3 hours at 37°. The plate was then rinsed 3 times with 200 ul/well of 1 mg/ml BSA in HS buffer with agitation over a 10 minute interval.
Goat anti-LBP serum, 100 ul/well, diluted 2000 times in 1 mg/ml BSA in HS buffer was then incubated in the wells for 2 hours at 37°. The anti-LBP antiserum was then rinsed out as above and replaced for 1 hour at room temperature with 100 ul/well of peroxidase conjugated rabbit anti-goat IgG diluted 2500 times in 1 mg/ml BSA.
(§3) Finally, 100 ul/well o-phenylenediamine solution (4 mM o-phenylenediamine, 2.3 mM H2 O2, 50 mM citric acid, 133 mM Na2 HPO4, pH 5.0) were added and the resulting composition maintained until sufficient color had developed (5-15 minutes). The reaction was stopped by addition of 100 ul/well 5M H2 SO4 and the absorbance at 490 nm of each well was quantitated in a microtiter plate reader. Mean absorbances and standard errors of the means were calculated from 4-8 replicates of each well.
Inhibition of LBP binding to the plate was studied by premixing the compound under study at the desired concentration with 1 ug/ml purified LBP for 10 minutes at 37° before adding the mixture to the microtiter plate.

[2] = molecular target: T1, purified lapine LBP; experiment: Binding of purified lapine LBP to LPS types and lipid A partial structures (microtiter plate); conditions: detected with goat anti-rabbit LBP and peroxidase conjugated rabbit anti-goat IgG
Description: as §1
(§4) Binding affinities of LBP for LPS are near 10^9 m^-1.
as §2, with “out. […]” for “out.”
as §3

[3] = NRS reconstitution assay for LBP activity (C1.3 formation, retardation of LPS binding to HDL); assay type: biochemical, rabbit; conditions: added to NRS
Description: Two examples of the NRS reconstitution assay for lipopolysaccharide binding protein (LBP) activity in the lapine (rabbit) system are shown in FIG. 5. In control studies, no systematic dependence on the assay results were observed when smaller total assay volumes; i.e., 0.5 or 0.25 ml rather than the standrard 1 ml, were used.
The basic method used during development of the purification procedure for LBP was a reconstitution assay in which fractions of acute phase serum were assayed for their ability to reconstitute "acute phase behavior" in NRS. The screening assay used was to mix a sample of the material to be tested with 1.0 ml of NRS at 37 degrees C. for 30 minutes. LPS and EDTA were then added to the concentrations given above, and the LPS-HDL binding reaction was allowed to proceed for ten minutes at 37 degrees before addition of CsCl and centrifugation. The 10 minute reaction time was chosen as a compromise between the times required for LPS to bind to HDL in NRS and APRS. […]
To quantitate LBP activity in purified fractions of APRS, the reconstitution assay just described was performed with a series of different amounts of the sample being assayed up to a maximum of 200 ul per ml NRS. After centrifugation and quantitation of the LPS in C1.3, a plot of percent LPS as C1.3 versus sample volume was made. […]

[4] = tested on: Gram-negative bacteria; conditions: similar conditions for LBP and BPI; cited from earlier work
[5] = Binding affinity of LBP for LPS; conditions: association constant
Text: as §1, §4

[6] = concentration necessary to reduce the binding of 1 ug/ml LBP to the Re595 LPS-coated plate by 50 percent
[7] = concentration necessary to reduce the binding of 1 ug/ml LBP to the plate by 50 percent

Row | Molecule | ED50 [1, 6] | IC50 [1, 7] | IC50 [1, 6] | Inhibition of LBP binding to LPS plate, in words [1] | also measured
1 | 0-[2-amino-2-deoxy-N^2 -(3-hydroxytetradecanoyl)-beta-D-glucopyranosyl]-(1-6)-amino-2-deoxy-N^2 -(3-hydroxytetradecanoyl)-alpha-D-glucopyranose 1,4'-bisphosphate [DADG-BSA] | 540 ng/mL | 0.57 µM |  |  | 
2 | Nc1ncnc2c1ncn2[C@@H]1O[C@H](COP(=O)(O)O)[C@@H](O)[C@H]1O [AMP, adenosine-5'-monophosphate] |  | > 2800 µM | > 2880 µM | ineffective | 
3 | CCCCCCCCCCCCCC(=O)OCC(COP(=O)(O)O)OC(=O)CCCCCCCCCCCCC (stereo not drawn) [Dimyristoyl phosphatidic acid, dimyristoyl phosphatidic acid] |  | 3.9 µM | 4.22 µM |  | 
4 | CCCCCCCCCCCCCC(=O)O[C@H](CCCCCCCCCCC)CC(=O)O[C@@H]1[C@@H](NC(=O)C[C@@H](CCCCCCCCCCC)OC(=O)CCCCCCCCCCC)[C@H](OC[C@H]2O[C@H](OP(=O)(O)O)[C@H](NC(=O)C[C@H](O)CCCCCCCCCCC)[C@@H](OC(=O)C[C@H](O)CCCCCCCCCCC)[C@@H]2O)O[C@H](CO)[C@H]1OP(=O)(O)O [J5 LA (synthetic)] |  | 0.02 µM | 0.0222 µM |  | 
5 | CCCCCCCCCCC[C@@H](O)CC(=O)N[C@H]1[C@@H](OP(=O)(O)O)O[C@H](CO)[C@@H](O)[C@@H]1OC(=O)C[C@H](O)CCCCCCCCCCC [Lipid x] |  | 3.9 µM | 3.93 µM |  | Binding of LBP to the substance [2]: only poorly
6 | CCCCCCCCCCC[C@@H](O)CC(=O)N[C@H]1[C@H](OC[C@H]2O[C@H](OP(=O)(O)O)[C@H](NC(=O)C[C@H](O)CCCCCCCCCCC)[C@@H](OC(=O)C[C@H](O)CCCCCCCCCCC)[C@@H]2O)O[C@H](CO)[C@@H](OP(=O)(O)O)[C@@H]1OC(=O)C[C@H](O)CCCCCCCCCCC [precursor IVA] |  |  |  |  | Binding of LBP to the substance [2]: bind
7 | Dextran sulfate | 73 ng/mL |  |  | fairly good ligands | 
8 | Heparin | 21,000 ng/ml |  |  | inhibitory only at high concentrations | 
9 | Lipoteichoic acid | 480 ng/mL |  |  | fairly good ligands | 
10 | B1 |  |  |  |  | Retardation of LPS binding to HDL / reconstitution of acute phase behavior in normal rabbit serum [3]: does not reconstitute the observed phenomena
11 | B2 |  |  |  |  | Bactericidal effect [4]: kills
12 | B3 |  |  |  |  | Binding affinities of LBP for LPS [5]: ~10^9 m^-1; Retardation of LPS binding to HDL / reconstitution of acute phase behavior in normal rabbit serum [3]: retards binding; Bactericidal effect [4]: no bactericidal effects
